In patent US20230357179A1, “RAF KINASE INHIBITORS AND METHODS OF USE THEREOF” (Deciphera Pharmaceuticals, LLC, priority 2021, published 2023) one finds IC50 data, which are given here for 3 compounds.

Assay [1] has as its system WM3629 cells. As to the kind of experiment: WM3629 cell proliferation assay (2), resazurin, 384-well. The class given is cell-based. The note with it: inhibition of cell proliferation, 67-72 hours. The protocol:
WM3629 Cell Proliferation Assay (2)
WM3629 cells (#WM3629-01-0001) are obtained from Rockland Immunochemicals Inc (Gilbertsville, PA). Briefly, cells were grown in MCDB 153 medium (Sigma, #M7403, St. Louis, MO) supplemented with 20% Leibovitz's L-15 (ThermoFisher #11415-064, Waltham, MA), 2% heat inactivated fetal bovine serum (ThermoFisher, #A3840001, Waltham, MA), 5 μg/mL Insulin (Bovine Pancreas) (Sigma, #I0516, St. Louis, MO), 1.68 mM Calcium Chloride (Sigma, #C-34006, St. Louis, MO) and 1% Penicillin/Streptomycin/L-Glutamine (ThermoFisher #10378016, Waltham, MA) at 37° C., 5% CO2, and 95% humidity. Cells are expanded until reaching 70-95% confluency at which point they are sub-cultured or harvested for assay use. Using the Beckman Coulter Echo 650, a serial dilution of test compound is dispensed into a 384-well black clear bottom plate in triplicate. One thousand one hundred twenty-five cells are added per well in 50 μL complete growth medium in the 384-well plate. Plates are incubated for 67-72 hours at 37° C., 5% CO2, and 95% humidity. […] Plates are read on a Synergy2 or equivalent reader (Biotek, Winooski VT) using an excitation of 540 nm and an emission of 600 nm. Data is analyzed using Prism software (GraphPad, San Diego, CA) to calculate IC50 values.
Background: Alamar Blue is a resazurin reagent that responds to reducing activity.

Assay [2] has as its system Miapaca-2 cells. In words: MiaPaca-2 combination cell proliferation assay (1) with cobimetinib, 96-well. Format: cell-based. To be noted: inhibition of cell proliferation, read-out: MiaPaca-2 Combo (1) IC50. The procedure: MiaPaca-2 Combination Cell proliferation Assay (1)
Miapaca-2 cells (catalog #CRL-1420) are obtained from the American Type Culture Collect (ATCC, Manassas, VA). Briefly, cells were grown in DMEM supplemented with 10% characterized fetal bovine serum (Invitrogen, Carlsbad, CA), 2.5% New Zealand sourced horse serum and 1% Penicillin/Streptomycin/L-Glutamine at 37° C., 5% CO2, and 95% humidity. Cells are expanded until reaching 70-95% confluency at which point they are subcultured or harvested for assay use. A serial dilution of test compound was dispensed into multiple 96-well black clear bottom plates in triplicate. A serial dilution of complete growth medium containing cobimetinib was prepared at twice the final concentration and 100 μL was dispensed across the test compound titration in triplicate. Three thousand cells are added per well in 100 μL complete growth medium in each 96-well plate. Plates are incubated for 67-72 hours at 37° C., 5% CO2, and 95% humidity. At the end of the incubation, 40 μL of a 440 μM solution of resazurin (Sigma, St. Louis, MO) in PBS is added to each well of the plate and plates are incubated for an additional 5-7 hours at 37° C., 5% CO2, and 95% humidity. Plates are read on a Synergy2 or equivalent reader (Biotek, Winooski VT) using an excitation of 540 nm and an emission of 600 nm. Drug synergy was assessed via BLISS analysis in the Combenefit software (Cancer Research UK Cambridge Institute, Cambridge, UK). Data is analyzed using Prism software (GraphPad, San Diego, CA) to calculate IC50 values. Shifts in test compound IC50 values are reported from top-constrained combination therapy curves.

SMILES strings stand for the structures.

The IC50 is the concentration that gives 50% inhibition. `CNC(=O)c1cc(-c2cc(-c3cc(NC(=O)N4CC[C@H](C(F)(F)F)C4)ccc3C)ccn2)ccn1` [Example 215]: the IC50 in assay [1] lay in the range of 500 to 1000 nM. Same read-out and setting: under `CNC(=O)c1cc(-c2cncc(-c3cc(NC(=O)N4CC[C@H](C(F)(F)F)C4)ccc3C)c2)ccn1` [Example 228] stands 1000 to 10000 nM. With `Cc1cc(F)c(NC(=O)NCCC2(C)CC2)cc1-c1cc(OCCO)nc(-c2ccnc3[nH]ncc23)c1` [Example 87], the IC50 in assay [2] lay in the range of 100 to 500 nM.
